Patent publication US20070025930A1, “Dibenzoilmethane derivative compounds, the use thereof in the form of photoactivable solar filters and cosmetic compositions containing said compounds” (UNIVERSITE PAUL SABATIER TOULOUSE 3, priority 2003, published 2007)

Tests used:
[1] = Tests of stability towards UV radiation: water-in-oil preparation on a quartz slide, UVA absorbance monitored under solar irradiation; assay type: physicochemical; conditions: for Variation in the absorbance at 356 nm: water-in-oil preparation on quartz slide; for decrease in UVA absorbance: preparation with 1% by mass of screening agents; for decrease of the absorbance at 356 nm: mean UV flux 4 mW/cm^2; for photostability compared with Parsol 1789: solar irradiation of preparations
Description: By way of example, the changes under irradiation of a base preparation (water-in-oil emulsion) containing the compounds obtained in the above examples, i.e. compound C10 and compound O10, are compared with that of the same preparation containing Parsol 1789 (mass % equivalent for each screening agent).
By way of example, the chosen preparations may be composed as follows:
Glycasil L 0.19%, butyl paraben 0.3%, beeswax 4%, PEG-30 dipolyhydroxystearate 3%, dicapryl carbonate 10%, polyglyceryl-3-diisostearate 1.5%, water 78.64%, xanthan gum 1%, Na2EDTA 0.2%, NaCI 1%; methyl paraben 0.17%
To this common base is added, depending on the case, the compounds C10 or O10 or Parsol 1789 in equivalent mass %. 15 to 20 mg of these preparations are spread onto a quartz slide and the UVA absorbance of the slide is monitored over time under solar irradiation (in the month of June at 43° latitude north between 13.00 h and 16.00 h, mean flux of the solar UV radiation: 4 mW/cm^2, Oriel 70380 UV Radiometer—response between 280 nm and 400 nm with a maximum at 370 nm)). The absorbance at 356 nm of the plate with Parsol 1789 decreases by 51% in 1 hour and by 73% in 2 hours. In the same time, the plates that received compound O10 have an absorbance that increases by 16% in 1 hour and 19% in 2 hours. […]

[2] = background statement on the reference screening agent; cited from earlier work
[3] = UV absorption (absorption maximum, molar extinction coefficient) in solution; assay type: physicochemical
Description: As an illustration of these ultraviolet-absorbing capacities, measurements were taken for two dibenzoylmethane derivatives according to the invention: • for a compound of formula (I) in which R1, R′1, R2, R′2, R3, R′3, R4, R′4 and R′5 each represent a hydrogen atom and R5 represents a saturated linear acyclic carbon-based chain containing 10 carbon atoms, the absorption maximum is (in solution in acetonitrile) at 263 nm with a molar extinction coefficient of 20 000 I.cm^−1.mol^−1. This compound will be referred to hereinbelow as compound C10; • for a compound of formula (I) in which R1, R′1, R2, R′2, R3, R′3, R4, R′4 and R5 each represent a hydrogen atom and R′5 represents a saturated linear acyclic carbon-based chain containing 10 carbon atoms, the absorption maximum (in solution in acetonitrile) is at 302 nm with a molar extinction coefficient of 17 000 I.cm^−1.mol^−1.
This is likewise the case for compound C10. Furthermore, in organized medium, these two compounds, subjected to ultraviolet radiation, undergo a shift of their maximum absorbance wavelength from UVB to UVA, thus causing the same effect as organization of the system. As a result, the maximum shift of the absorption bands towards UVA is obtained by placing these compounds in organized medium under irradiation, as is the case for an antisun cosmetic preparation under the normal conditions of its use. Irradiation of the preparation amplifies the phenomenon induced by the medium in which the compounds are present. There are therefore two screening molecules present, the absorbing power of which appears in its entirety only when they are subjected to ultraviolet exposure, in an organized medium. The protection capacity of a preparation containing them should thus increase during exposure, rather than decrease, which is the case for preparations containing Parsol 1789 as sole UV-screening agent. This increase in the absorbance at the start of exposure makes it possible to maintain a maximum level of protection for longer.
The NMR spectra were acquired using a Bruker ARX 400 MHz machine. […]

Compound | Variation in the absorbance at 356 nm ([1]; Irradiation 1 hour solar UV) | Variation in the absorbance at 356 nm ([1]; Irradiation 2 hours solar UV) | decrease in UVA absorbance ([1]; after 2 hours solar irradiation) [%] | decrease of the absorbance at 356 nm ([1]; in 1 hour solar irradiation) [%] | decrease in UVA absorbance ([1]; in 1 hour solar irradiation) [%] | decrease of the absorbance at 356 nm ([1]; in 2 hours solar irradiation) [%] | maximum absorption efficacy (wavelength) [2] | absorption maximum ([3]; in solution in acetonitrile) [nm] | molar extinction coefficient ([3]; in solution in acetonitrile, at the absorption maximum) | absorption maximum in the UVA range (solvatochromy) ([3]; organized solvents, e.g. micellar solutions of sodium dodecyl sulfate) | absorbance after 2 hours of exposure to sunlight versus initial absorbance ([1]; 2 hours of solar irradiation, compared with before irradiation) | absorbance change during the first hour of exposure to sunlight ([1]; first hour of solar irradiation) | decrease of the absorbance during the second hour ([1]; relative to the maximum achieved after 1 hour of irradiation) [%] | photostability compared with Parsol 1789 [1]
COc1ccc(C(=O)CC(=O)c2ccc(C(C)(C)C)cc2)cc1 [Parsol 1789, 4-tert-butyl-4′-methoxydibenzoylmethane, reference compound] | −51% | −73% | 73 | 51 | 51 | 73 | about 340 nm |  |  |  |  |  |  | 
CCCCCCCCCCC(C(=O)c1ccc(OC)cc1)C(=O)c1ccc(C(C)(C)C)cc1 (centres unmarked) [compound C10, 3-(4-tert-butylphenyl)-2-decanyl-1-(4-methoxyphenyl)propane-1,3-dione] | +400% | +264% |  |  |  |  |  | 263 | 20 000 I.cm^−1.mol^−1 | about 360 nm | remains markedly higher than its initial absorbance | increases greatly | 27 | much more photostable than Parsol 1789
CCCCCCCCCCO/C(=C\C(=O)c1ccc(OC)cc1)c1ccc(C(C)(C)C)cc1 [compound O10, 3-(4-tert-butylphenyl)-3-decanoxy-1-(4-methoxy-phenyl) prop-2-ene-1-one] |  |  |  |  |  |  |  |  |  |  |  |  |  | much more photostable than Parsol 1789
